Assay: k' factor value (hydrophobicity) by high-performance liquid column chromatography on octadecylsilane column
Type: physicochemical
Conditions: unconjugated steroid; 75% methanol in water, apparent pH 5.0, octadecylsilane column
Description: Preferably the steroid used in the invention is characterized in that the unconjugated derivative of the steroid is retained on a hydrophobic column for a length of time sufficient to produce a k' factor value of at least 7, the k' factor value being obtained by subjecting a monomeric solution of 1 mg/ml of such steroid derivative to high-performance liquid column chromatography at 3,000 psi, using a 250×4.6 mm column having octadecylsilane-coated 5 μm micro silica particles as the stationary phase and a mobile phase, delivered at 1.0 ml/min., consisting of 75% methanol in water, v/v, buffered with 0.005 M KH2 PO4 /H3 PO4 to give an apparent pH value, as measured using a glass electrode, of 5.0, the k' factor value being defined by k'=(tr -t0)/t0, where t0 is the retention time in the column of the solvent front and tr is the retention time in the column of the steroid derivative as measured by obtaining the elution profile of the steroid derivative by absorbance at 210 nm.
The structure of the steroid molecule affects its chemical properties and thus its functioning as a drug transporting molecule. We believe that all of the steroid molecules used in the invention facilitate transport by self-associating to form reversed micelles within the membrane across which the drug is being transported; these reversed micelles, it is believed, function as pores, allowing the drug to pass through. A measure of the ability of a given steroid molecule's ability to form such reversed micelles is the hydrophobicity of the unconjugated form of the molecule, a property which can be quantified using the k' factor value, which is computed by observing the steroid's retention time in a high-performance liquid chromatography (HPLC) column under the conditions described above. As mentioned above, the k' factor value of the unconjugated derivative of the steroid should be at least 7 for the steroid to be suitable in the therapeutic compositions of the invention.

| Structure (SMILES) | k' factor value |
| --- | --- |
| CC(=O)O[C@@H]1[C@H]2[C@H](C)[C@H](O)CC[C@]2(C)[C@@H]2CC[C@H]3/C(=C(\CCC=C(C)C)C(=O)O)[C@@H](OC(C)=O)C[C@]3(C)[C@@]2(C)[C@H]1O [cephalosporin P1] | 9.5 |
| CC(=O)O[C@H]1C[C@@]2(C)[C@@H](CC[C@H]3[C@@]4(C)C=CC(=O)[C@@H](C)[C@@H]4[C@H](OC(C)=O)C(=O)[C@@]32C)/C1=C(\CCC=C(C)C)C(=O)O [helvolic acid] | 4.7 |
| C[C@H](CCC(=O)O)[C@H]1CC[C@H]2[C@@H]3[C@@H](O)C[C@@H]4C[C@H](O)CC[C@]4(C)[C@H]3CC[C@]12C [ursodeoxycholic acid] | 4.7 |
